Test system: 299254-011-R-J1-PDC complex spheroid viability
Assay: Anticancer human tumor 299254-011-R-J1-PDC patient-derived melanoma cell line growth inhibition [POLQ]
Conditions: for IC50: curve of first compound; for viability, T/C: stronger effect = lower value
Method in brief: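 Growth inhibition in 3D: complex spheroids (tumor PDC, HUVEC, MSC) treated with POLQ inhibitor combinations; where Cmax unknown, highest tested concentration 10 microM, except SN-38 at 1 microM.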

[1] = second compound 0.0316 µM, first compound 0.0316 µM
[2] = second compound 0.0316 µM, first compound 0.1 µM
[3] = second compound 0.0316 µM, first compound 0.316 µM
[4] = second compound 0.0316 µM, first compound 1 µM
[5] = second compound 0.1 µM, first compound 0.0316 µM
[6] = second compound 0.1 µM, first compound 0.1 µM
[7] = second compound 0.1 µM, first compound 0.316 µM
[8] = second compound 0.1 µM, first compound 1 µM
[9] = second compound 0.316 µM, first compound 0.0316 µM
[10] = second compound 0.316 µM, first compound 0.1 µM
[11] = second compound 0.316 µM, first compound 0.316 µM
[12] = second compound 0.316 µM, first compound 1 µM
[13] = second compound 1 µM, first compound 0.0316 µM
[14] = second compound 1 µM, first compound 0.1 µM
[15] = second compound 1 µM, first compound 0.316 µM
[16] = second compound 1 µM, first compound 1 µM
[17] = second compound 3.16 µM, first compound 0.0316 µM
[18] = second compound 3.16 µM, first compound 0.1 µM
[19] = second compound 3.16 µM, first compound 0.316 µM
[20] = second compound 3.16 µM, first compound 1 µM
[21] = second compound 10 µM, first compound 0.0316 µM
[22] = second compound 10 µM, first compound 0.1 µM
[23] = second compound 10 µM, first compound 0.316 µM
[24] = second compound 10 µM, first compound 1 µM
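Also: spheroids exposed to drugs for one week before measurement.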
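For viability, T/C in this document: percent viability relative to DMSO vehicle control taken as 100%.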

In the case of `CCc1cc2c(N3CCc4c(cc(Cn5ccnc5)cc4-c4cn(C)nc4C(F)(F)F)C3=O)ccnc2c(OC)n1` + COC1C(OC(N)=O)C(O)C(Oc2ccc3c(O)c(NC(=O)c4ccc(O)c(CC=C(C)C)c4)c(=O)oc3c2C)OC1(C)C, the IC50 (second compound 0.0316 µM) is reported as over 10000 nM, the IC50 (second compound 0.1 µM) is reported as over 10000 nM and the IC50 (second compound 0.316 µM) is reported as over 10000 nM. It also gave an IC50 (second compound 1 µM) of over 10000 nM, an IC50 (second compound 3.16 µM) of over 10000 nM and an IC50 (second compound 10 µM) of over 10000 nM. The viability, T/C [1] was 115%, the viability, T/C [2] was 104% and the viability, T/C [3] was 111%. The viability, T/C [4] was 116%, the viability, T/C (second compound 0.0316 µM, first compound 3.16 µM) was 107% and the viability, T/C (second compound 0.0316 µM, first compound 10 µM) was 82.2%. The viability, T/C [5] was 110%, the viability, T/C [6] was 105% and the viability, T/C [7] was 101%. The viability, T/C [8] was 85.2%, the viability, T/C (second compound 0.1 µM, first compound 3.16 µM) was 92.2% and the viability, T/C (second compound 0.1 µM, first compound 10 µM) was 71.3%. It also gave a viability, T/C [9] of 93%, a viability, T/C [10] of 121% and a viability, T/C [11] of 101%. The viability, T/C [12] was 95.8%, the viability, T/C (second compound 0.316 µM, first compound 3.16 µM) was 101% and the viability, T/C (second compound 0.316 µM, first compound 10 µM) was 91.4%. For the same compound, the viability, T/C [13] was 107%, the viability, T/C [14] was 110% and the viability, T/C [15] was 106%. The viability, T/C [16] was 106%, the viability, T/C (second compound 1 µM, first compound 3.16 µM) was 113% and the viability, T/C (second compound 1 µM, first compound 10 µM) was 84.7%. For the same compound, the viability, T/C [17] was 99.3%, the viability, T/C [18] was 101% and the viability, T/C [19] was 116%. It also gave a viability, T/C [20] of 114%, a viability, T/C (second compound 3.16 µM, first compound 3.16 µM) of 92.9% and a viability, T/C (second compound 3.16 µM, first compound 10 µM) of 80%. For the same compound, the viability, T/C [21] was 120%, the viability, T/C [22] was 99.2% and the viability, T/C [23] was 111%. For the same compound, the viability, T/C [24] was 118%, the viability, T/C (second compound 10 µM, first compound 3.16 µM) was 97.5% and the viability, T/C (second compound 10 µM, first compound 10 µM) was 81.4%.
In the case of `CC(=O)O[C@H]1C(=O)[C@@]2(C)[C@H]([C@H](OC(=O)c3ccccc3)[C@]3(O)C[C@H](OC(=O)[C@H](O)[C@@H](NC(=O)c4ccccc4)c4ccccc4)C(C)=C1C3(C)C)[C@]1(OC(C)=O)CO[C@@H]1C[C@@H]2O` + Nc1ccc(C#CCN(C(=O)Cc2ncc(C(F)(F)F)cc2C(F)(F)F)c2ccc(F)cc2)nn1, the IC50 (second compound 0.0316 µM) is reported as 153 nM, the IC50 (second compound 0.1 µM) is reported as 85.6 nM and the IC50 (second compound 0.316 µM) is reported as 109 nM. The IC50 (second compound 1 µM) was 50.2 nM, the IC50 (second compound 3.16 µM) was 24.9 nM and the IC50 (second compound 10 µM) was under 9.49 nM. For the same compound, the viability, T/C (second compound 0.0316 µM, first compound 0.00949 µM) was 90.2%, the viability, T/C (second compound 0.0316 µM, first compound 0.03 µM) was 76.6% and the viability, T/C (second compound 0.0316 µM, first compound 0.0949 µM) was 59.5%. The viability, T/C (second compound 0.0316 µM, first compound 0.3 µM) was 37.8%, the viability, T/C (second compound 0.0316 µM, first compound 0.949 µM) was 28.6% and the viability, T/C (second compound 0.0316 µM, first compound 3 µM) was 24.8%. For the same compound, the viability, T/C (second compound 0.1 µM, first compound 0.00949 µM) was 103%, the viability, T/C (second compound 0.1 µM, first compound 0.03 µM) was 78.6% and the viability, T/C (second compound 0.1 µM, first compound 0.0949 µM) was 43.7%. The viability, T/C (second compound 0.1 µM, first compound 0.3 µM) was 39.5%, the viability, T/C (second compound 0.1 µM, first compound 0.949 µM) was 28.4% and the viability, T/C (second compound 0.1 µM, first compound 3 µM) was 26.9%. For the same compound, the viability, T/C (second compound 0.316 µM, first compound 0.00949 µM) was 84.2%, the viability, T/C (second compound 0.316 µM, first compound 0.03 µM) was 85.3% and the viability, T/C (second compound 0.316 µM, first compound 0.0949 µM) was 52%. The viability, T/C (second compound 0.316 µM, first compound 0.3 µM) was 32.5%, the viability, T/C (second compound 0.316 µM, first compound 0.949 µM) was 27.8% and the viability, T/C (second compound 0.316 µM, first compound 3 µM) was 24.5%. It also gave a viability, T/C (second compound 1 µM, first compound 0.00949 µM) of 80.8%, a viability, T/C (second compound 1 µM, first compound 0.03 µM) of 58.2% and a viability, T/C (second compound 1 µM, first compound 0.0949 µM) of 39.2%. For the same compound, the viability, T/C (second compound 1 µM, first compound 0.3 µM) was 32.3%, the viability, T/C (second compound 1 µM, first compound 0.949 µM) was 21.7% and the viability, T/C (second compound 1 µM, first compound 3 µM) was 25.4%. For the same compound, the viability, T/C (second compound 3.16 µM, first compound 0.00949 µM) was 74.7%, the viability, T/C (second compound 3.16 µM, first compound 0.03 µM) was 43.5% and the viability, T/C (second compound 3.16 µM, first compound 0.0949 µM) was 35.5%. For the same compound, the viability, T/C (second compound 3.16 µM, first compound 0.3 µM) was 25.9%, the viability, T/C (second compound 3.16 µM, first compound 0.949 µM) was 22.7% and the viability, T/C (second compound 3.16 µM, first compound 3 µM) was 25.4%. The viability, T/C (second compound 10 µM, first compound 0.00949 µM) was 47.5%, the viability, T/C (second compound 10 µM, first compound 0.03 µM) was 36% and the viability, T/C (second compound 10 µM, first compound 0.0949 µM) was 26.9%. For the same compound, the viability, T/C (second compound 10 µM, first compound 0.3 µM) was 20.9%, the viability, T/C (second compound 10 µM, first compound 0.949 µM) was 24.8% and the viability, T/C (second compound 10 µM, first compound 3 µM) was 23.2%.
For `C=CCn1c(=O)c2cnc(Nc3ccc(N4CCN(C)CC4)cc3)nc2n1-c1cccc(C(C)(C)O)n1` + Nc1ccc(C#CCN(C(=O)Cc2ncc(C(F)(F)F)cc2C(F)(F)F)c2ccc(F)cc2)nn1, the IC50 (second compound 0.0316 µM) was over 1000 nM, the IC50 (second compound 0.1 µM) was over 1000 nM and the IC50 (second compound 0.316 µM) was over 1000 nM. It also gave an IC50 (second compound 1 µM) of over 1000 nM, an IC50 (second compound 3.16 µM) of over 1000 nM and an IC50 (second compound 10 µM) of over 1000 nM. For the same compound, the viability, T/C (second compound 0.0316 µM, first compound 0.00316 µM) was 104%, the viability, T/C (second compound 0.0316 µM, first compound 0.01 µM) was 85% and the viability, T/C [1] was 98.5%. For the same compound, the viability, T/C [2] was 105%, the viability, T/C [3] was 95.8% and the viability, T/C [4] was 68.3%. The viability, T/C (second compound 0.1 µM, first compound 0.00316 µM) was 101%, the viability, T/C (second compound 0.1 µM, first compound 0.01 µM) was 93.1% and the viability, T/C [5] was 94.9%. It also gave a viability, T/C [6] of 102%, a viability, T/C [7] of 104% and a viability, T/C [8] of 69.9%. It also gave a viability, T/C (second compound 0.316 µM, first compound 0.00316 µM) of 104%, a viability, T/C (second compound 0.316 µM, first compound 0.01 µM) of 101% and a viability, T/C [9] of 93.4%. The viability, T/C [10] was 93.4%, the viability, T/C [11] was 104% and the viability, T/C [12] was 74.6%. For the same compound, the viability, T/C (second compound 1 µM, first compound 0.00316 µM) was 102%, the viability, T/C (second compound 1 µM, first compound 0.01 µM) was 120% and the viability, T/C [13] was 107%. For the same compound, the viability, T/C [14] was 97.2%, the viability, T/C [15] was 94.4% and the viability, T/C [16] was 58%. The viability, T/C (second compound 3.16 µM, first compound 0.00316 µM) was 95.5%, the viability, T/C (second compound 3.16 µM, first compound 0.01 µM) was 95.5% and the viability, T/C [17] was 95.7%. For the same compound, the viability, T/C [18] was 95.3%, the viability, T/C [19] was 101% and the viability, T/C [20] was 72.5%. The viability, T/C (second compound 10 µM, first compound 0.00316 µM) was 103%, the viability, T/C (second compound 10 µM, first compound 0.01 µM) was 92% and the viability, T/C [21] was 88.6%. The viability, T/C [22] was 87.5%, the viability, T/C [23] was 77.3% and the viability, T/C [24] was 58.9%.

From PubChem BioAssay AID1963849 (Molecular Pharmacology Branch, DTP, NCI, 2024)
